Data on 22 molecules can be found in patent US20250122465A1 (priority 2023, published 2025).

Structures are written as SMILES. Where two headings read alike, the source gives them in different places.

One experiment concerns STRAIN-1. Put plainly: Spore activation rate by phase-contrast microscopy, STRAIN-1. The format is cell-based, Bacillus.
Experiment [1] relates to Clostridium perfringens type A and G strains. To be noted: combined with taurocholate; cited from earlier work.
[2] abbreviates: Example 1, individual amino acid at its Table 1 amount (0.08-500 g/L), 42° C., 1 hour.
Setting [3] is: Example 1, individual amino acid at its Table 1 amount (0.08-500 g/L), 42° C., 24 hours.

As for `NCC(=O)O` [Glycine], the “Activation Rate (%) at 1 hr.” value in the experiment with STRAIN-1 (setting [2]) is given as 0%. Further, in the experiment with STRAIN-1 (setting [3]), the “Activation Rate (%) at 24 hrs.” value is given as 0%.
Take `OC[C@H]1O[C@@H](n2cnc3c(O)ncnc32)[C@H](O)[C@@H]1O` [Inosine]: the “Activation Rate (%) at 1 hr.” value with STRAIN-1 (setting [2]) came out at 0%. Further, the “Activation Rate (%) at 24 hrs.” value with STRAIN-1 (setting [3]) is on record as 0%.
`C[N+](C)(C)C[C@H](O)CC(=O)[O-]` [L Carnitine]: in the experiment on STRAIN-1, the “Activation Rate (%) at 1 hr.” value was 0% and the “Activation Rate (%) at 24 hrs.” value was 0%.
On to `N=C(N)NCCC[C@H](N)C(=O)O` [L-Arginine], for which the “Activation Rate (%) at 1 hr.” value in the experiment on STRAIN-1 (setting [2]) was determined as 0%. Besides, in the experiment on STRAIN-1 (setting [3]), the “Activation Rate (%) at 24 hrs.” value is 0%.
Turning to `N[C@@H](CC(=O)O)C(=O)O` [L-Aspartic acid], in the experiment with STRAIN-1 (setting [2]), the “Activation Rate (%) at 1 hr.” value turned out to be 0%. Besides, in the experiment on STRAIN-1 (setting [3]), the “Activation Rate (%) at 24 hrs.” value was found to be 0%.
On to `N[C@@H](CS)C(=O)O` [L-Cysteine], for which, in the experiment on STRAIN-1 (setting [2]), the “Activation Rate (%) at 1 hr.” value turned out to be 0%. Moreover, the “Activation Rate (%) at 24 hrs.” value with STRAIN-1 (setting [3]) was 0%.
As to `N[C@@H](CSSC[C@H](N)C(=O)O)C(=O)O` [L-Cystine], the “Activation Rate (%) at 1 hr.” value with STRAIN-1 (setting [2]) is 0%. The “Activation Rate (%) at 24 hrs.” value with STRAIN-1 (setting [3]) is given as 0%.
For `N[C@@H](CCC(=O)O)C(=O)O` [L-Glutamic acid], the “Activation Rate (%) at 1 hr.” value in the experiment with STRAIN-1 (setting [2]) turned out to be 0%. For the same molecule, in the experiment with STRAIN-1 (setting [3]), the “Activation Rate (%) at 24 hrs.” value was determined as 0%.
Consider `NC(=O)CC[C@H](N)C(=O)O` [L-Glutamine], for which the “Activation Rate (%) at 1 hr.” value in the experiment with STRAIN-1 (setting [2]) is listed as 0%. For the same molecule, the “Activation Rate (%) at 24 hrs.” value in the experiment with STRAIN-1 (setting [3]) is reported as 0%.
`N[C@@H](Cc1c[nH]cn1)C(=O)O` [L-Histidine]: in the experiment with STRAIN-1 (setting [2]), the “Activation Rate (%) at 1 hr.” value is given as 0%. In addition, in the experiment with STRAIN-1 (setting [3]), the “Activation Rate (%) at 24 hrs.” value came to 0%.
Turning to `CC[C@H](C)[C@H](N)C(=O)O` [L-Isoleucine], the “Activation Rate (%) at 24 hrs.” value in the experiment on STRAIN-1 (setting [3]) was 99 +/− 0%; in the experiment on STRAIN-1 (Example 1, individual amino acid at its Table 1 amount (0.08-500 g/L), 42° C., 24 hours, listed as L-isoleucine), 99%.
As to `CC(C)C[C@H](N)C(=O)O` [L-Leucine], the “Activation Rate (%) at 24 hrs.” value in the experiment on STRAIN-1 is reported as “zero”; in the experiment on STRAIN-1 (setting [3]) it was 0%. For the same molecule, the “Activation Rate (%) at 1 hr.” value in the experiment with STRAIN-1 (setting [2]) is 0%.
Take `NCCCC[C@H](N)C(=O)O` [L-Lysine]: in the experiment on STRAIN-1, the “Activation Rate (%) at 1 hr.” value was determined as 0% and the “Activation Rate (%) at 24 hrs.” value is on record as 0%.
Turning to `CSCC[C@H](N)C(=O)O` [L-Methionine], the “Activation Rate (%) at 1 hr.” value in the experiment with STRAIN-1 (setting [2]) worked out at 0%. Also, the “Activation Rate (%) at 24 hrs.” value in the experiment with STRAIN-1 (setting [3]) is reported as 0%.
`N[C@@H](Cc1ccccc1)C(=O)O` [L-Phenylalanine]: the “Activation Rate (%) at 1 hr.” value in the experiment with STRAIN-1 (setting [2]) is 0%. Besides, the “Activation Rate (%) at 24 hrs.” value in the experiment with STRAIN-1 (setting [3]) stood at 0%.
Take `O=C(O)[C@@H]1CCCN1` [L-Proline]: in the experiment on STRAIN-1 (setting [2]), the “Activation Rate (%) at 1 hr.” value was 0%. The “Activation Rate (%) at 24 hrs.” value with STRAIN-1 (setting [3]) is 0%.
As for `N[C@@H](CO)C(=O)O` [L-Serine], the “Activation Rate (%) at 1 hr.” value with STRAIN-1 (setting [2]) was 0%. Also, the “Activation Rate (%) at 24 hrs.” value in the experiment with STRAIN-1 (setting [3]) is 0%.
As for `C[C@@H](O)[C@H](N)C(=O)O` [L-Threonine], the “Activation Rate (%) at 1 hr.” value in the experiment with STRAIN-1 (setting [2]) is given as 0%. Further, the “Activation Rate (%) at 24 hrs.” value with STRAIN-1 (setting [3]) is listed as 0%.
For the molecule `N[C@@H](Cc1c[nH]c2ccccc12)C(=O)O` [L-Tryptophan], the “Activation Rate (%) at 1 hr.” value with STRAIN-1 (setting [2]) was determined as 0%. Further, the “Activation Rate (%) at 24 hrs.” value in the experiment with STRAIN-1 (setting [3]) came to 0%.
On to `N[C@@H](Cc1ccc(O)cc1)C(=O)O` [L-Tyrosine], for which, in the experiment on STRAIN-1 (setting [2]), the “Activation Rate (%) at 1 hr.” value was 0%. Also, the “Activation Rate (%) at 24 hrs.” value in the experiment with STRAIN-1 (setting [3]) was found to be 0%.
As to `CC(C)[C@H](N)C(=O)O` [L-Valine], the “Activation Rate (%) at 1 hr.” value is on record as “did not result in any activation” in the experiment on STRAIN-1 and 0% in the experiment with STRAIN-1 (setting [2]). For the same molecule, the “Activation Rate (%) at 24 hrs.” value is 95 +/− 0% with STRAIN-1 (setting [3]) and 95% with STRAIN-1 (Example 1, individual amino acid at its Table 1 amount (0.08-500 g/L), 42° C., 24 hours, listed as L-valine).
Take `C[C@H](N)C(=O)O` [L-alanine]: in experiment [1], the spore germination induced entry was “approximately 50%”.
